Experimental data published in US8961959B2, “Glucosylceramide synthase inhibitors and therapeutic methods using the same” (The Regents of the University of Michigan, priority 2011, dated 2015).

System: Sandhoff (Hexb−/−) mice
Assay: Juvenile Sandhoff (Hexb−/−) mice treated with compound 3h
Format: in vivo, mouse
Conditions: for Neutral Lipids GA2: p-15 Sandhoff mice; for Total Siatic Acid: Hexb −/− p-15, 60 mg/kg/day i.p. p-9 to p-15, resorcinol assay
Protocol: The SV/129 Hexb−/− mice were obtained from the NIH. The mice were derived by the disruption of the murine Hexb gene and transferring this gene into the mouse genome via homologous recombination and embryonic stem cell technology as previously described (38). The genotypes of mice were determined by PCR as previously described. Mice were propagated and housed in plastic cages with filter tops containing Sani-Chip bedding (P.J. Murphy Forest Products Corp.; Montville, N.J.). Food and water were provided ad libitum. Nursing females were provided with cotton nesting pads for the duration of the experiment.
The solution was dried under nitrogen, resuspended in 3.6 ml distilled H2O, then dissolved at 42° C. in a shaking water bath. The solution was neutralized by adding 400 μl of 10× phosphate buffer saline (PBS), and was sterilized following passage through an Acrodisc 0.2 μm syringe filter (Sigma, St. Louis, Mo.). […] The mice were weighed daily and received intraperitoneal (i.p.) injections equivalent to 60 mg/kg from postnatal day 9 (p-9) to postnatal day 15 (p-15). Control mice received i.p. injections of PBS. Injections were performed using a Hamilton syringe (26 gauge, point style 2, 0.5 inch needle) (Hamilton, Reno, Nev.), and volumes ranged from 50 ul to 100 μl/mouse. The mice were sacrificed 4 hrs after the final injection on p-15. Cerebrum, cerebellum, and liver were dissected and frozen on dry ice to determine wet weight. The tissues then were homogenized in 3.0 ml distilled H2O, and 150 μl of each homogenate was set aside for analysis of protein and lysosomal enzyme activities. The remaining homogenate was frozen at −80° C., lyophilized, then weighed before lipid extraction. […]
Lipid extraction of lyophilized tissue was performed overnight in 5 ml CHCl3:CH3OH 1:1 (v/v). Samples were spun down at 2500 rpm for 20 min, and the supernatant was collected. Pellets were washed in 2 ml CHCl3:CH3OH 1:1 (v/v), spun down again, and the total 7 ml of supernatant was brought up to a final volume of 19.6 ml at a ratio of 30:60:8 CHCl3:CH3OH:dH2O (v/v/v).
Neutral lipids and cholesterol were separated from acidic lipids and gangliosides by ion exchange chromatography as we described (32, 28, 24). The total lipid extract, suspended in CHCl3:CH3OH:dH2O, 30:60:8 by volume (solvent A), was applied to a DEAE Sephadex column (1.2 mL bed volume) that had been equilibrated prior with solvent A (28). The column was washed twice with 20 mL solvent A and the entire neutral lipid fraction, consisting of the initial eluent plus washes, was collected. This fraction contained cholesterol, phosphatidylcholine, phosphatidylethanolamine and plasmalogens, sphingomyelin, and neutral GSLs to include cerebrosides and asialo-GM2 (GA2). Next, acidic lipids were eluted from the column with 35 mL CHCl3:CH3OH:0.8 M Na acetate, 30:60:8 by volume. Gangliosides were separated from acidic phospholipids by Folch partitioning, base treated, and desalted as previously described (32, 28). Neutral lipids were dried by rotary evaporation and resuspended in 10 mL CHCl3:CH3OH (2:1; v/v). A 4 mL aliquot was evaporated under nitrogen, base treated with 1 N NaOH, and Folch partitioned. The Folch lower phase containing GA2 was evaporated under nitrogen and resuspended in 4 mL CHCl3:CH3OH (2:1; v/v).
Total ganglioside content was quantified before and after desalting using the resorcinol assay as previously described (28). Sialic acid values were fit to a standard curve using n-acetylneuraminic acid as a standard.
All lipids were analyzed qualitatively by high-performance thin-layer chromatography (HPTLC) according to previously described methods (28, 24, 25). Lipids were spotted on 10 cm×20 cm Silica gel 60 HPTLC plates (E. Merck, Darmstadt, Germany) using a Camag Linomat III auto-TLC spotter (Camag Scientific, Inc., Wilmington, N.C.). […]

[1] = Hexb −/− mice p-15, 60 mg/kg/day i.p. p-9 to p-15, mean ± SEM
[2] = cerebellum, Hexb −/− p-15, 60 mg/kg/day
[3] = cerebrum, Hexb −/− p-15, 60 mg/kg/day
[4] = liver, Hexb −/− p-15, 60 mg/kg/day

With `O=C(CC1Cc2ccccc2C1)N[C@H](CN1CCCC1)[C@H](O)c1ccc2c(c1)OCCO2` [Compound 3h, 2-(2,3-dihydro-1H-inden-2-yl)-N-((1R,2R)-1-(2,3-dihydrobenzo[b][1,4]dioxin-6-yl)-1-hydroxy-3-(pyrrolidin-1-yl)propan-2-yl)acetamide] the “adverse effects on body weight over the treatment period” value (60 mg/kg/day p-9 to p-15) was “no adverse effects”, the “Neutral Lipids GA2” value (Cerebellum) was 0.55 ± 0.01 mg/100 mg dry weight and the “Neutral Lipids GA2” value (Cerebrum) was 0.51 ± 0.01 mg/100 mg dry weight. For the same molecule, the “Body Weight” value (Hexb −/− mice p-15, 60 mg/kg/day i.p. p-9 to p-15 (oxalate), mean ± SEM) was 9.0 ± 0.5 g, the “Water Content Cerebellum” value [1] was 83.88 ± 0.01% and the “Water Content Cerebrum” value [1] was 84.45 ± 0.01%. The “Wet Weight Cerebellum” value [1] was 87.7 ± 7.7 mg, the “Wet Weight Cerebrum” value [1] was 271.0 ± 2.3 mg and the “Neutral Lipids GA2” value (Liver) was 1.10 ± 0.05 mg/100 mg dry weight. For the same molecule, the “reduction of GM2 content” value (cerebellum of Hexb −/− mice) was 53%, the “total sialic content lower than in control Hexb −/− mice” value (shortened to “total sialic content lower than”) (cerebellum, 60 mg/kg/day p-9 to p-15) was 14% and the “G1a Concentration” value [2] was 76.6 ± 3.7 micrograms of sialic acid per 100 mg dry weight. The “G1a Percent” value [2] was 24.1 ± 0.3%, the “GD1b Concentration” value [2] was 42.1 ± 2.0 micrograms of sialic acid per 100 mg dry weight and the “GD1b Percent” value [2] was 24.1 ± 0.3%. The “GD3 Concentration” value [2] was 9.8 ± 1.2 micrograms of sialic acid per 100 mg dry weight, the “GD3 Percent” value [2] was 4.3 ± 0.2% and the “GM1 Concentration” value [2] was 17.4 ± 1.4 micrograms of sialic acid per 100 mg dry weight. The “GM1 Percent” value [2] was 5.5 ± 0.4%, the “GM2 Concentration” value [2] was 9.8 ± 1.2 micrograms of sialic acid per 100 mg dry weight and the “GM2 Percent” value [2] was 3.1 ± 0.1%. The “GQ1b Concentration” value [2] was 41.3 ± 3.8 micrograms of sialic acid per 100 mg dry weight, the “GQ1b Percent” value [2] was 12.9 ± 0.1% and the “GT1a/LD1 Concentration” value [2] was 22.9 ± 1.0 micrograms of sialic acid per 100 mg dry weight. For the same molecule, the “GT1a/LD1 Percent” value [2] was 7.2 ± 0.1%, the “GT1b Concentration” value [2] was 94.4 ± 3.9 micrograms of sialic acid per 100 mg dry weight and the “GT1b Percent” value [2] was 29.7 ± 0.8%. For the same molecule, the “Total Siatic Acid” value (cerebellum, mean ± SEM) was 318 ± 15, the “reduction of GM2 content” value (cerebrum of Hexb −/− mice) was 52% and the “total sialic content lower than” value (cerebrum, 60 mg/kg/day p-9 to p-15) was 11%. For the same molecule, the “G1a Concentration” value [3] was 187.4 ± 5.2 micrograms of sialic acid per 100 mg dry weight, the “G1a Percent” value [3] was 43.4 ± 0.3% and the “GD1b Concentration” value [3] was 31.7 ± 0.5 micrograms of sialic acid per 100 mg dry weight. The “GD1b Percent” value [3] was 7.3 ± 0.1%, the “GM1 Concentration” value [3] was 26.4 ± 1.6 micrograms of sialic acid per 100 mg dry weight and the “GM1 Percent” value [3] was 6.1 ± 0.2%. The “GM2 Concentration” value [3] was 87.7 ± 7.7 micrograms of sialic acid per 100 mg dry weight, the “GM2 Percent” value [3] was 2.8 ± 0.1% and the “GQ1b Concentration” value [3] was 33.3 ± 0.7 micrograms of sialic acid per 100 mg dry weight. The “GQ1b Percent” value [3] was 7.7 ± 0.1%, the “GT1a/LD1 Concentration” value [3] was 20.8 ± 0.7 micrograms of sialic acid per 100 mg dry weight and the “GT1a/LD1 Percent” value [3] was 4.8 ± 0.3%. For the same molecule, the “GT1b Concentration” value [3] was 119.8 ± 3.3 micrograms of sialic acid per 100 mg dry weight, the “GT1b Percent” value [3] was 27.8 ± 0.1% and the “Total Siatic Acid” value (cerebrum, mean ± SEM) was 432 ± 11. The “body weight versus control Hexb −/− mice” value (in words) was “slightly higher”, the “reduction of NGNA-GM2 content” value (liver, versus PBS-treated Hexb −/− controls) was 45% and the “total sialic content lower than” value (liver, 60 mg/kg/day p-9 to p-15) was 38%. The “G1a Concentration” value [4] was 12.2 ± 0.3 micrograms of sialic acid per 100 mg dry weight, the “G1a Percent” value [4] was 17.6 ± 1.1% and the “GM1 Concentration” value [4] was 15.4 ± 2.1 micrograms of sialic acid per 100 mg dry weight. The “GM1 Percent” value [4] was 21.9 ± 1.5%, the “GM2 Concentration” value [4] was 42.1 ± 2.6 micrograms of sialic acid per 100 mg dry weight and the “GM2 Percent” value [4] was 60.5 ± 1.3%. The “Total Siatic Acid” value (liver, mean ± SEM) was 70 ± 5 and the “reduction of GA2 in Hexb −/− liver” value (p=0.06) was “not significant”.
